Experimental data reported in patent publication US9868748B2, “Thiazolopyrrolidine inhibitors of ROR- γ” (Vitae Pharmaceuticals, Inc., priority 2013, dated 2018).
Like-named read-outs stand apart in the source and are kept apart here.

Experiments:
[1] = target: recombinant RORγ Ligand Binding Domain (LBD) protein (Homo sapiens (Human), UniProt P51449); assay: Radio-Ligand RORγ Binding Assay (Assay 1); conditions: competition with 25-hydroxy [26,27-3H]-cholesterol, SPA, read-out: RORγ Binding Ki Range*
Sequence of recombinant RORγ Ligand Binding Domain (LBD) protein (P51449 269-508): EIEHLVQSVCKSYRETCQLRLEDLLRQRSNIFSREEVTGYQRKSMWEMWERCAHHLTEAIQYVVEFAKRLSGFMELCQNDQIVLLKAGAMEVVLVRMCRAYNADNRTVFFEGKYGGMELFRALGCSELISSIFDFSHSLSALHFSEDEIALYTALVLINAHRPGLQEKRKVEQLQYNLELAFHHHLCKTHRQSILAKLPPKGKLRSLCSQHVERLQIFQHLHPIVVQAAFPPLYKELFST
Summary of the method: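 Recombinant human RORγ ligand binding domain (6×His-GST fusion, 24 nM stock) competed with tritiated 25-hydroxycholesterol (8.6 nM stock) in HEPES buffer pH 7.4 with detergents and DTT; poly-Lys YSi SPA beads, room temperature, tritium SPA signal. Four-parameter IC50 from semi-log dilutions, normalised to DMSO and 10 μM T0901317, then Ki via KD equation.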

[2] = target: full-length RORγt in Jurkat cells (Homo sapiens (Human), UniProt P51449); assay: RORγt 5xRORE Assay in Jurkat Cells (Assay 2); format: cell-based; conditions: Nanoluc luciferase reporter, 16-18 hrs
Sequence of full-length RORγt in Jurkat cells (P51449 other isoform, or with tags, fused parts or gaps): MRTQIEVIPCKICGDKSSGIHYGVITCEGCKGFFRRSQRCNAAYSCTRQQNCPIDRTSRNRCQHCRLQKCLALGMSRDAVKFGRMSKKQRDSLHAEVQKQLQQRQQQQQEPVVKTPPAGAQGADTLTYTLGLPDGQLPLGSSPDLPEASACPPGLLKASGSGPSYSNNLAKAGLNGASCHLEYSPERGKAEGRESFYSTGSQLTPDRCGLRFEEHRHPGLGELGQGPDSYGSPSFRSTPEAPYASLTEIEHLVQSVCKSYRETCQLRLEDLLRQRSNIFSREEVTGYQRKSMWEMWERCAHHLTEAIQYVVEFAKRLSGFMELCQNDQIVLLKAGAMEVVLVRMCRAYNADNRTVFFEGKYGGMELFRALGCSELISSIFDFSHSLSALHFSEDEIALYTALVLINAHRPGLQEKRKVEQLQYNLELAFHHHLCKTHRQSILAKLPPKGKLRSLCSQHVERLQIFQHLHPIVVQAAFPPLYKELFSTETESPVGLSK
Summary of the method: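 Inverse agonist activity was read as NanoGlo luminescence from conditioned medium after 16–18 h compound exposure (37 °C, 0.1% DMSO final). The cells were Jurkat, transiently transfected with RORγt and a secNluc reporter carrying five RORE repeats, seeded 80,000 per well in delipidated-serum RPMI.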

[3] = Table 8, read-out: RORγt5X IC50 Range*
[4] = Table 9, read-out: RORγt5X IC50 Range*

## CC(C)[C@H]1c2nc(NS(=O)(=O)c3ccc(CC(=O)O)cc3)sc2CN1Cc1ccc(C#N)c(F)c1 [I-D2, (S)-2-(4-(N-(5-(4-cyano-3-fluorobenzyl)-4-isopropyl-5,6-dihydro-4H-pyrrolo[3,4-d]thiazol-2-yl)sulfamoyl)phenyl)acetic acid]
[1]; Table 8
  Ki: < 100 nM
[2]; [3]
  IC50: > 1000 nM

## CCS(=O)(=O)c1ccc(CC(=O)Nc2nc3c(s2)CN(C[C@H]2CC[C@H](C(N)=O)CC2)[C@H]3C(C)C)cc1
[1]; Table 9
  Ki: < 100 nM
[2]; [4]
  IC50: 100 to 1000 nM

## CCS(=O)(=O)c1ccc(CNC(=O)c2nc3c(s2)CN(Cc2ccc(C#N)cc2)[C@H]3C(C)C)cc1 [I-J2]
[1]; Table 8
  Ki: < 100 nM
[2]; [3]
  IC50: < 100 nM

## CCS(=O)(=O)c1ccc(CNC(=O)c2nc3c(s2)CN(Cc2ccc(C(F)(F)F)nc2)[C@H]3C(C)C)cc1
[1]; Table 9
  Ki: 100 to 1000 nM
[2]; [4]
  IC50: 100 to 1000 nM

## CCOc1ccc(CN2Cc3sc(NC(=O)Cc4ccc(S(=O)(=O)CC)cc4)nc3[C@H]2CC)cc1
[1]; Table 9
  Ki: < 100 nM
[2]; [4]
  IC50: 100 to 1000 nM

## CC[C@H](C)[C@H]1c2nc(NC(=O)Cc3ccc(S(C)(=O)=O)cc3)sc2CN1Cc1ccc(Cl)cc1 [I-H1, N—((S)-4-((S)-sec-butyl)-5-(4-chlorobenzyl)-5,6-dihydro-4H-pyrrolo[3,4-d]thiazol-2-yl)-2-(4-(methylsulfonyl)phenyl)acetamide]
[1]; Table 8
  Ki: < 100 nM
[2]; [3]
  IC50: < 100 nM

## CCS(=O)(=O)c1ccc(CC(=O)Nc2nc3c(s2)CN(Cc2ccc(C#N)c(C)n2)[C@H]3C(C)C)cc1 [I-A50]
[1]; Table 8
  Ki: < 100 nM
[2]; [3]
  IC50: < 100 nM

## CC(C)[C@H]1c2nc(NC(=O)Cc3ccc(S(C)(=O)=O)cc3)sc2CN1[C@@H](C)c1ccc(C#N)cc1Cl [I-B10]
[1]; Table 8
  Ki: < 100 nM
[2]; [3]
  IC50: < 100 nM

## CCS(=O)(=O)c1ccc(CC(=O)Nc2nc3c(s2)CN(C[C@H]2CC[C@@H](C(F)(F)F)CC2)C3C(C)C)cc1 (some centres unmarked)
[1]; Table 9
  Ki: < 100 nM
[2]; [4]
  IC50: > 1000 nM

## CCS(=O)(=O)c1ccc(CC(=O)Nc2nc3c(s2)CN(Cc2ccc(C#N)cn2)[C@@]3(C)C(C)C)cc1 [I-I1, (S)—N-(5-((5-cyanopyridin-2-yl)methyl)-4-isopropyl-4-methyl-5,6-dihydro-4H-pyrrolo[3,4-d]thiazol-2-yl)-2-(4-(ethylsulfonyl)phenyl)acetamide]
[1]; Table 8
  Ki: < 100 nM
[2]; [3]
  IC50: < 100 nM

## CCS(=O)(=O)c1ccc(CC(=O)Nc2nc3c(s2)CN(Cc2ccc(-c4nnn(C)n4)cc2)[C@H]3C(C)C)cc1 [I-A42]
[1]; Table 8
  Ki: < 100 nM
[2]; [3]
  IC50: < 100 nM

## CC(C)[C@H]1c2nc(NC(=O)Cc3ccc(S(C)(=O)=O)cc3)sc2CN1Cc1ccn(C(F)F)c(=O)c1
[1]; Table 9
  Ki: < 100 nM
[2]; [4]
  IC50: 100 to 1000 nM

## CC(C)[C@H]1c2nc(NC(=O)Cc3ccc(C#N)cc3)sc2CN1Cc1ccc(C#N)c(Cl)c1
[1]; Table 9
  Ki: < 100 nM
[2]; [4]
  IC50: 100 to 1000 nM

## CCS(=O)(=O)c1ccc(CC(=O)Nc2nc3c(s2)CN(C[C@@H]2CC[C@H](C(F)(F)F)N(C)C2)[C@H]3C(C)C)cc1 (relative stereo)
[1]; Table 9
  Ki: < 100 nM
[2]; [4]
  IC50: > 1000 nM

## CC(C)[C@H]1c2nc(C(=O)NCc3ccc(S(C)(=O)=O)cc3)sc2CN1Cc1ccc(F)cc1
[1]; Table 9
  Ki: < 100 nM
[2]; [4]
  IC50: > 1000 nM

## CCS(=O)(=O)c1ccc(CC(=O)Nc2nc3c(s2)CN([C@H](C)c2ccc(Cl)cn2)[C@H]3C(C)C)cc1 [I-A47]
[1]; Table 8
  Ki: < 100 nM
[2]; [3]
  IC50: < 100 nM

## CCS(=O)(=O)c1ccc(CC(=O)Nc2nc3c(s2)CN(C(C)c2cccc(C(F)(F)F)c2)[C@@H]3C(C)C)cc1 (some centres unmarked)
[1]; Table 9
  Ki: < 100 nM
[2]; [4]
  IC50: > 1000 nM

## CC[C@H]1c2nc(NC(=O)Cc3ccc(S(=O)(=O)CC)cc3)sc2CN1[C@@H](C)Cc1ccccc1
[1]; Table 9
  Ki: < 100 nM
[2]; [4]
  IC50: > 1000 nM

## CCS(=O)(=O)c1ccc(CC(=O)Nc2nc3c(s2)CN(C[C@H]2CC[C@@](OC)(C(F)(F)F)CC2)[C@H]3C(C)C)nc1 (single isomer, unassigned)
[1]; Table 9
  Ki: < 100 nM
[2]; [4]
  IC50: 100 to 1000 nM

## CCS(=O)(=O)c1ccc(CC(=O)Nc2nc3c(s2)CN(C[C@@H]2CC[C@H](C(F)(F)F)OC2)[C@H]3C(C)C)nc1 (single isomer, unassigned)
[1]; Table 9
  Ki: < 100 nM
[2]; [4]
  IC50: > 1000 nM

## CCS(=O)(=O)c1ccc(CC(=O)Nc2nc3c(s2)CN(Cc2ccc(C(F)(F)F)cn2)[C@H]3C(C)C)nc1
[1]; Table 9
  Ki: < 100 nM
[2]; [4]
  IC50: 100 to 1000 nM

## CC[C@H](C)C1c2nc(NC(=O)Cc3ccc(S(C)(=O)=O)cc3)sc2CN1Cc1ccc(Cl)cn1 (some centres unmarked) [I-H3]
[1]; Table 8
  Ki: < 100 nM
[2]; [3]
  IC50: < 100 nM

## CCS(=O)(=O)c1ccc(CC(=O)Nc2nc3c(s2)CN(C[C@H]2C[C@H](C#N)C2)[C@H]3C(C)C)cc1 (relative stereo)
[1]; Table 9
  Ki: < 100 nM
[2]; [4]
  IC50: > 1000 nM

## CCS(=O)(=O)c1ccc(CC(=O)Nc2nc3c(s2)CN(Cc2ccc(OC(F)F)cc2)[C@H]3C(C)C)nc1 [I-C2]
[1]; Table 8
  Ki: < 100 nM
[2]; [3]
  IC50: < 100 nM

## CCS(=O)(=O)c1cnc(CC(=O)Nc2nc3c(s2)CN(Cc2ccc(C#N)cc2)[C@H]3C(C)C)nc1
[1]; Table 9
  Ki: < 100 nM
[2]; [4]
  IC50: 100 to 1000 nM

## CC(C)[C@@H]1c2nc(NC(=O)Cc3ccc(S(C)(=O)=O)cc3)sc2CN1Cc1cccc(F)c1
[1]; Table 9
  Ki: < 100 nM
[2]; [4]
  IC50: > 1000 nM

## CCS(=O)(=O)c1ccc(CC(=O)Nc2nc3c(s2)CN([C@H](C)c2ccc(C#N)cn2)[C@H]3C(C)C)cc1 (single isomer, unassigned)
[1]; Table 9
  Ki: < 100 nM
[2]; [4]
  IC50: < 100 nM

## CCS(=O)(=O)c1ccc(CC(=O)Nc2nc3c(s2)CN(C[C@@H]2CCCCO2)[C@H]3C(C)C)cc1 (relative stereo)
[1]; Table 9
  Ki: < 100 nM
[2]; [4]
  IC50: > 1000 nM

## CC(C)[C@H]1c2nc(NC(=O)Cc3ccc(Cl)cc3)sc2CN1Cc1ccc(Cl)cc1
[1]; Table 9
  Ki: < 100 nM
[2]; [4]
  IC50: > 1000 nM

## CCS(=O)(=O)c1ccc(CC(=O)Nc2nc3c(s2)CN(C[C@H]2CC[C@@](C)(C#N)CC2)[C@H]3C(C)C)cc1 (single isomer, unassigned)
[1]; Table 9
  Ki: < 100 nM
[2]; [4]
  IC50: < 100 nM

## CCS(=O)(=O)c1ccc(CC(=O)Nc2nc3c(s2)CN(C[C@H]2CC[C@H](C(=O)OC)CC2)[C@H]3C(C)C)cc1 [I-A44]
[1]; Table 8
  Ki: < 100 nM
[2]; [3]
  IC50: < 100 nM

## CCS(=O)(=O)c1ccc(CC(=O)Nc2nc3c(s2)CN(Cc2cc(OC(F)(F)F)ccc2F)[C@@H]3C(C)C)cc1
[1]; Table 9
  Ki: < 100 nM
[2]; [4]
  IC50: > 1000 nM

## CC(C)[C@@H]1c2nc(NC(=O)Cc3ccc(S(C)(=O)=O)cc3)sc2CN1[C@H](C)c1ccc(OC(F)(F)F)cc1 (single isomer, unassigned)
[1]; Table 9
  Ki: 100 to 1000 nM
[2]; [4]
  IC50: > 1000 nM

## CC(C)[C@H]1c2nc(NC(=O)Cc3ccc(S(C)(=O)=O)cc3)sc2CN1Cc1ccc(Cl)cc1 [I-B1, (S)—N-(5-(4-chlorobenzyl)-4-isopropyl-5,6-dihydro-4H-pyrrolo[3,4-d]thiazol-2-yl)-2-(4-(methylsulfonyl)phenyl)acetamide]
[1]; Table 8
  Ki: < 100 nM
[2]; [3]
  IC50: < 100 nM

## CCS(=O)(=O)c1ccc(CC(=O)Nc2nc3c(s2)CN(Cc2ccc(-c4ccn(C)c(=O)c4)cc2)[C@H]3C(C)C)nc1 [I-C7]
[1]; Table 8
  Ki: < 100 nM
[2]; [3]
  IC50: < 100 nM

## CCS(=O)(=O)c1ccc(CNC(=O)c2nc3c(s2)CN(C[C@H]2CN(C(=O)OC(C)(C)C)CCO2)[C@H]3C(C)C)cc1 (relative stereo)
[1]; Table 9
  Ki: < 100 nM
[2]; [4]
  IC50: 100 to 1000 nM

## CC(C)[C@H]1c2nc(NC(=O)Cc3ccc(S(C)(=O)=O)cc3)sc2CN1Cc1cnc(C(F)(F)F)nc1
[1]; Table 9
  Ki: < 100 nM
[2]; [4]
  IC50: < 100 nM

## CCS(=O)(=O)c1ccc(CC(=O)Nc2nc3c(s2)CN(C(C)c2c(F)cc(Cl)cc2F)[C@H]3C(C)C)cc1 (some centres unmarked) [I-A32]
[1]; Table 8
  Ki: < 100 nM
[2]; [3]
  IC50: < 100 nM

## CCS(=O)(=O)c1ccc(CC(=O)Nc2nc3c(s2)CN(C[C@H]2CC[C@H](C(F)(F)F)N(C4CC4)C2)[C@H]3C(C)C)cc1 (single isomer, unassigned)
[1]; Table 9
  Ki: < 100 nM
[2]; [4]
  IC50: > 1000 nM

## CCS(=O)(=O)c1ccc(CC(=O)Nc2nc3c(s2)CN(CC2CN(CC(F)(F)F)C2)[C@H]3C(C)C)cc1
[1]; Table 9
  Ki: < 100 nM
[2]; [4]
  IC50: 100 to 1000 nM

## CCS(=O)(=O)c1ccc(CC(=O)Nc2nc3c(s2)CN(C[C@H]2CC[C@H](C(F)(F)F)OC2)[C@H]3C(C)C)cc1 [I-A27]
[1]; Table 8
  Ki: < 100 nM
[2]; [3]
  IC50: < 100 nM

## CC(C)[C@H]1c2nc(NS(=O)(=O)c3ccc(CC(=O)O)cc3)sc2CN1Cc1ccc(C#N)c(F)c1 [drawing 411]
[1]; Table 9
  Ki: < 100 nM
[2]; [4]
  IC50: > 1000 nM

## CCS(=O)(=O)c1ccc(CNC(=O)c2nc3c(s2)CN(Cc2ccc4nonc4c2)[C@H]3C(C)C)nc1
[1]; Table 9
  Ki: < 100 nM
[2]; [4]
  IC50: 100 to 1000 nM
